Test results from PubChem BioAssay (NCI).
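Five concentrations, 48 hours, 96-well plates. GI50 = concentration required for 50% inhibition of growth. Definition used: TGI = concentration required for complete inhibition of growth.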

What was measured:
Assay in all cases: inhibition of tumour cell growth, NCI panel, 48 h
786-0 renal = system: 786-0 renal
A498 renal = system: A498 renal
A549 NSCLC = system: A549 NSCLC
ACHN renal = system: ACHN renal
BT-549 breast = system: BT-549 breast
CAKI-1 renal = system: CAKI-1 renal
CCRF-CEM leukemia = system: CCRF-CEM leukemia
COLO 205 colon = system: COLO 205 colon
DU-145 prostate = system: DU-145 prostate
HCC-2998 colon = system: HCC-2998 colon
HCT-116 colon = system: HCT-116 colon
HCT-15 colon = system: HCT-15 colon
HL-60(TB) leukemia = system: HL-60(TB) leukemia
HOP-62 NSCLC = system: HOP-62 NSCLC
HOP-92 NSCLC = system: HOP-92 NSCLC
HS 578T breast = system: HS 578T breast
HT29 colon = system: HT29 colon
IGROV1 ovarian = system: IGROV1 ovarian
K-562 leukemia = system: K-562 leukemia
KM12 colon = system: KM12 colon
LOX IMVI melanoma = system: LOX IMVI melanoma
M14 melanoma = system: M14 melanoma
MALME-3M melanoma = system: MALME-3M melanoma
MCF7 breast = system: MCF7 breast
MDA-MB-231 breast = system: MDA-MB-231 breast
MDA-MB-435 = system: MDA-MB-435
MOLT-4 leukemia = system: MOLT-4 leukemia
NCI-H226 lung = system: NCI-H226 lung
NCI-H23 lung = system: NCI-H23 lung
NCI-H460 lung = system: NCI-H460 lung
NCI-H522 lung = system: NCI-H522 lung
NCI/ADR-RES ovarian = system: NCI/ADR-RES ovarian
OVCAR-3 ovarian = system: OVCAR-3 ovarian
OVCAR-4 ovarian = system: OVCAR-4 ovarian
OVCAR-5 ovarian = system: OVCAR-5 ovarian
OVCAR-8 ovarian = system: OVCAR-8 ovarian
PC-3 prostate = system: PC-3 prostate
RPMI-8226 leukemia = system: RPMI-8226 leukemia
RXF 393 renal = system: RXF 393 renal
SF-268 CNS = system: SF-268 CNS
SF-295 CNS = system: SF-295 CNS
SF-539 CNS = system: SF-539 CNS
SK-MEL-2 melanoma = system: SK-MEL-2 melanoma
SK-MEL-28 melanoma = system: SK-MEL-28 melanoma
SK-MEL-5 melanoma = system: SK-MEL-5 melanoma
SK-OV-3 ovarian = system: SK-OV-3 ovarian
SN12C renal = system: SN12C renal
SNB-19 CNS = system: SNB-19 CNS
SNB-75 CNS = system: SNB-75 CNS
SR leukemia = system: SR leukemia
SW-620 colon = system: SW-620 colon
T-47D breast = system: T-47D breast
TK-10 renal = system: TK-10 renal
U251 CNS = system: U251 CNS
UACC-257 melanoma = system: UACC-257 melanoma
UACC-62 melanoma = system: UACC-62 melanoma
UO-31 renal = system: UO-31 renal

## O=C(Nc1ccccc1O)c1ccc(NS(=O)(=O)c2cccc3cccnc23)cc1
786-0 renal
  GI50: 2.4 µM
  TGI: 6.4 µM
A498 renal
  GI50: 0.208 µM
  TGI: 1.62 µM
A549 NSCLC
  GI50: 2.03 µM
  TGI: 9.02 µM
ACHN renal
  GI50: 1.21 µM
  TGI: 5.78 µM
BT-549 breast
  GI50: 2.79 µM
  TGI: 7.94 µM
CAKI-1 renal
  GI50: 0.998 µM
  TGI: 4.8 µM
CCRF-CEM leukemia
  GI50: 1.05 µM
  TGI: > 25 µM
COLO 205 colon
  GI50: 1.06 µM
  TGI: 4.01 µM
DU-145 prostate
  GI50: 1.27 µM
  TGI: 9.55 µM
HCC-2998 colon
  GI50: 1.59 µM
  TGI: 5.23 µM
HCT-116 colon
  GI50: 0.752 µM
  TGI: 3.1 µM
HCT-15 colon
  GI50: 2.08 µM
  TGI: 7.71 µM
HL-60(TB) leukemia
  GI50: 1.03 µM
  TGI: 12.9 µM
HOP-62 NSCLC
  GI50: 0.855 µM
  TGI: 7.33 µM
HOP-92 NSCLC
  GI50: 0.691 µM
  TGI: 3.22 µM
HS 578T breast
  GI50: 0.787 µM
  TGI: 11.8 µM
HT29 colon
  GI50: 1.18 µM
  TGI: > 16 µM
IGROV1 ovarian
  GI50: 3.06 µM
  TGI: 9.95 µM
K-562 leukemia
  GI50: 0.971 µM
  TGI: > 25 µM
KM12 colon
  GI50: 2.73 µM
  TGI: 7.29 µM
LOX IMVI melanoma
  GI50: 1.23 µM
  TGI: 4.8 µM
M14 melanoma
  GI50: 1.18 µM
  TGI: 5.61 µM
MALME-3M melanoma
  GI50: 0.827 µM
  TGI: > 25 µM
MCF7 breast
  GI50: 0.941 µM
  TGI: > 18.2 µM
MDA-MB-231 breast
  GI50: 2.17 µM
  TGI: 7.72 µM
MDA-MB-435
  GI50: 0.806 µM
  TGI: 4.86 µM
MOLT-4 leukemia
  GI50: 1.21 µM
  TGI: > 25 µM
NCI-H226 lung
  GI50: 2.36 µM
  TGI: 7.27 µM
NCI-H23 lung
  GI50: 2.02 µM
  TGI: 13.7 µM
NCI-H460 lung
  GI50: 1.05 µM
  TGI: 7.28 µM
NCI-H522 lung
  GI50: 0.67 µM
  TGI: 3.47 µM
NCI/ADR-RES ovarian
  GI50: 0.788 µM
  TGI: 5.96 µM
OVCAR-3 ovarian
  GI50: 1.42 µM
  TGI: 5.61 µM
OVCAR-4 ovarian
  GI50: 2.24 µM
  TGI: 24.5 µM
OVCAR-5 ovarian
  GI50: 0.744 µM
  TGI: > 12.7 µM
OVCAR-8 ovarian
  GI50: 0.665 µM
  TGI: 7.25 µM
PC-3 prostate
  GI50: 1.46 µM
  TGI: 8.25 µM
RPMI-8226 leukemia
  GI50: 0.464 µM
  TGI: > 9.66 µM
RXF 393 renal
  GI50: 1.72 µM
  TGI: 5.81 µM
SF-268 CNS
  GI50: 1.54 µM
  TGI: 8.18 µM
SF-295 CNS
  GI50: 1.09 µM
  TGI: 4.77 µM
SF-539 CNS
  GI50: 0.76 µM
  TGI: 10.1 µM
SK-MEL-2 melanoma
  GI50: 0.806 µM
  TGI: 4.35 µM
SK-MEL-28 melanoma
  GI50: 0.834 µM
  TGI: 4.91 µM
SK-MEL-5 melanoma
  GI50: 0.838 µM
  TGI: 3.42 µM
SK-OV-3 ovarian
  GI50: 1.32 µM
  TGI: 6.17 µM
SN12C renal
  GI50: 2.78 µM
  TGI: > 19.7 µM
SNB-19 CNS
  GI50: 2.89 µM
  TGI: > 14.8 µM
SNB-75 CNS
  GI50: 0.511 µM
  TGI: 8.03 µM
SR leukemia
  GI50: 1.31 µM
  TGI: 13.9 µM
SW-620 colon
  GI50: 0.81 µM
  TGI: 4.88 µM
T-47D breast
  GI50: 0.559 µM
  TGI: 4.16 µM
TK-10 renal
  GI50: 0.704 µM
  TGI: 3.45 µM
U251 CNS
  GI50: 1.3 µM
  TGI: 5.4 µM
UACC-257 melanoma
  GI50: 0.571 µM
  TGI: 5.25 µM
UACC-62 melanoma
  GI50: 0.539 µM
  TGI: 3.49 µM
UO-31 renal
  GI50: 0.73 µM
  TGI: 4.14 µM
